Measurements published in US5834452A, “1- or 6-hydroxylated steroids” (Roussel Uclaf, priority 1996, dated 1998).

Legend:
[1] = target: T1, Human glucocorticoid receptor (HGR) (Homo sapiens, UniProt P04150); assay: Relative bond affinity (RBA), recombinant human glucocorticoid receptor, charcoal dextran technique; format: binding; settings: 24 h at 0° C.; Dexamethasone = 100
T1 construct: made in house; host or cells: SF9 insect cells (baculovirus), lysate supernatant
T1 sequence (P04150 1-777): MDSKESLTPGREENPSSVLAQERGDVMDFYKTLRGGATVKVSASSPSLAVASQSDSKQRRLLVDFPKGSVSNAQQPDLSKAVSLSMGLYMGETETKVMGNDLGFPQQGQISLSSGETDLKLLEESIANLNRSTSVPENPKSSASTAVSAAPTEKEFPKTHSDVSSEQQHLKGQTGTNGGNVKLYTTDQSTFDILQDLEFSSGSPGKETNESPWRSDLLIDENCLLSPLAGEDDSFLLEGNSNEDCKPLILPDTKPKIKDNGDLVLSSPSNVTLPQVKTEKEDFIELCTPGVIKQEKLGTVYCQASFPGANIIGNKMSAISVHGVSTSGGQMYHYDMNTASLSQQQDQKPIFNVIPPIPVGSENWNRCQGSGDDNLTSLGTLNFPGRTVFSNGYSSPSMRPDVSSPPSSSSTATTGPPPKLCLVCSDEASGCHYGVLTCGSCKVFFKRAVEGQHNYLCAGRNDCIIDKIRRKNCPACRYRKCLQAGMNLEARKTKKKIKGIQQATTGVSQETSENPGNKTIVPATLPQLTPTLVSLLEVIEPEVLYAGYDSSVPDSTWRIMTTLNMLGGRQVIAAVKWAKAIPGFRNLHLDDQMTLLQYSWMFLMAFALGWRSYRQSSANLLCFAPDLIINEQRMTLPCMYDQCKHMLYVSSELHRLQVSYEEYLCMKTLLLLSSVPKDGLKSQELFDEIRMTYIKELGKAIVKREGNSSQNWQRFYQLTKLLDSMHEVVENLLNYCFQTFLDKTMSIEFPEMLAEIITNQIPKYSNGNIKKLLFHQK
Source text: (§1) The human recombinant receptor (HGR, HPR, HAR, HMR, HER) was used.
Human glucocorticoid receptor (HGR):
A supernatant of SF9 cells containing the recombinant human glucocorticoid receptor was obtained by the process described above for the progestogen receptor using the cDNA fragment described by Hollenberg et al (Nature, (1985), Vol. 318 No. 19/26 635) containing the region coding for the human glucocorticoid receptor. The cells obtained were lysed in the lysis buffer (2).
The supernatant was incubated at 0° C. for 24 hours with a constant concentration (T) of tritiated 11β, 17β-dihydroxy-6,21-dimethyl-[…] the presence of increasing concentrations of either unlabelled dexamethasone (0-1000×10^-9 M), or the unlabelled product to be tested (1 to 25000×10^-9 M). The concentration of bound tritiated 11β, 17β-dihydroxy-6,21-dimethyl-Δ^1,4,6 -pregnatriene-20-yn-3-one (B) was then measured in each incubate using the charcoal dextran adsorption technique. […]
(§2) The following two curves were drawn: the percentage of bound tritiated hormone B/BO as a function of the logarithm of the concentration of unlabelled reference hormone or as a function of the logarithm of the concentration of unlabelled test product. The straight line of the following equation was determined: […]
(§3) The relative bond affinity (RBA) of the test product was determined by the equation: […]

[2] = target: T2, Human androgen receptor (HAR) (Homo sapiens, UniProt P10275); assay: Relative bond affinity (RBA), recombinant human androgen receptor, charcoal dextran technique; format: binding; settings: 24 h at 0° C., Testosterone = 100
T2 construct: made in house; host or cells: SF9 insect cells (baculovirus), lysate supernatant
T2 sequence (P10275 1-920): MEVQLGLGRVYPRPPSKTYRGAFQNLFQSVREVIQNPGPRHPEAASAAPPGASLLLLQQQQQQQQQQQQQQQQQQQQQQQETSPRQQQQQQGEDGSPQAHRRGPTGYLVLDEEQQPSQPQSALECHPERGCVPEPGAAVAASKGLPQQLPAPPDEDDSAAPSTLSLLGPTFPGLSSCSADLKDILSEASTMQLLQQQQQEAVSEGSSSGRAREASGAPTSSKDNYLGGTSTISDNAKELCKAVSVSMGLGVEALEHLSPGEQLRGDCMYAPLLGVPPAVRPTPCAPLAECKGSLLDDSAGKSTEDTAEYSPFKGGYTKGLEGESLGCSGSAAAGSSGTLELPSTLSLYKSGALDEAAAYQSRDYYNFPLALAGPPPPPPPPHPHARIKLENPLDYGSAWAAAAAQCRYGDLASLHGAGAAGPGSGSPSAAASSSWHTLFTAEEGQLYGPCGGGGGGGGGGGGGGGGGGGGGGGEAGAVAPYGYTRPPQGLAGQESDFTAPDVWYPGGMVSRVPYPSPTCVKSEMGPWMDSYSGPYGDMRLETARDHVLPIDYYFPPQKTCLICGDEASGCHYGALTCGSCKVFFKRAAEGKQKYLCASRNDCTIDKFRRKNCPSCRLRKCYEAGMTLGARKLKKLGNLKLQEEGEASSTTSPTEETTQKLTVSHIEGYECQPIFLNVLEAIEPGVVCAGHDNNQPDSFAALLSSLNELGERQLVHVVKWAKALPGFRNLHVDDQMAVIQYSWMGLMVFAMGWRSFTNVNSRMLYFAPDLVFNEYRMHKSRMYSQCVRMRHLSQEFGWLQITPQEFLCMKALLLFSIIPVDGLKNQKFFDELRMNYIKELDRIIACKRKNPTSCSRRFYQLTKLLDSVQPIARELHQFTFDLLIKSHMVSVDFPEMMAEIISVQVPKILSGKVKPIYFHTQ
Protocol: as §1
Human androgen receptor (HAR)
A supernatant of SF9 cells containing the recombinant human androgen receptor was obtained by the process described above for the progestogen receptor using the cDNA fragment containing the region coding for the human androgen receptor. The cells obtained were lysed in the lysis buffer (3). The supernatant was incubated at 0° C. for an incubation time of 24 hours with a constant concentration (T) of tritiated testosterone in the presence of increasing concentrations of either unlabelled testosterone (0 to 1000×10^-9 M), or the unlabelled product to be tested (1 to 25000×10^-9 M). The concentration of bound tritiated testosterone (B) was then measured in each incubate using the charcoal dextran adsorption technique.
Calculation of the relative bond affinity (RBA).
as §2, §3

[3] = test system: endometrial proliferation (uterine lace); assay: Progestomimetic activity: endometrial transformation in the rabbit (Clauberg-McPhail test); format: in vivo; design: key to Average uterine lace (McPhail Index): McPhail scale 0–4 with 0.5 steps (endometrial proliferation); settings: for Progestomimetic activity: rabbit

Structure (SMILES) | RBA, Human glucocorticoid receptor [1] | RBA, Human androgen receptor [2] | RBA, Human androgen receptor ([2]; listed as product B) | Progestomimetic activity ([3]; 3 μg/kg percutaneously) | Average uterine lace (McPhail Index) ([3]; rabbit, 0,003 mg/kg, s/c, day 8 to day 11) | Progestomimetic activity ([3]; 3 and 10 μg/kg orally)
C[C@H](O)C(=O)[C@@]1(C)CC[C@H]2[C@@H]3C[C@@H](O)C4=CC(=O)CCC4=C3CC[C@@]21C [Product B, [6β, 17β-(S)]-6-hydroxy-17-(2-hydroxy-1-oxopropyl)-17-methyl-Δ^4,9-estradiene-3-one] | no or negligible RBA's | 0 | no or negligible RBA's |  |  | 
C[C@H](O)C(=O)[C@@]1(C)CC[C@H]2[C@@H]3CCC4=CC(=O)CCC4=C3CC[C@@]21C [Trimegestone, [17β-(S)]-17-(2-hydroxy-1-oxopropyl)-17-methyl-Δ^4,9-estradiene-3-one, reference compound] |  |  |  | strong activity | 3,8 | strong activity
